In the NIST ThermoML archive (doi:10.1021/acs.jced.8b00554):
± gives the expanded uncertainty stated by the source.

Assays:
[1] = Liquid, Vibrating tube method
[2] = refractive index (Na D-line) (dimensionless); conditions: 298.15 K; 101.33 kPa; Liquid; Standard Abbe refractometry

CCCCCCCCCC [decane]
[1]
Conditions | mass density [kg/m3]
313.15 K, 100 kPa | 714.75 ± 4.3
313.15 K, 1010 kPa | 715.53 ± 4.3
313.15 K, 2000 kPa | 716.4 ± 4.3
313.15 K, 3000 kPa | 717.27 ± 4.3
313.15 K, 4000 kPa | 718.14 ± 4.3
313.15 K, 5000 kPa | 718.99 ± 4.3
313.15 K, 6010 kPa | 719.78 ± 4.3
313.15 K, 7010 kPa | 720.66 ± 4.3
313.15 K, 7990 kPa | 721.48 ± 4.3
313.15 K, 9000 kPa | 722.28 ± 4.3
313.15 K, 10000 kPa | 723.08 ± 4.3
313.15 K, 11000 kPa | 723.91 ± 4.3
313.15 K, 12000 kPa | 724.66 ± 4.3
313.15 K, 13000 kPa | 725.42 ± 4.4
313.15 K, 14010 kPa | 726.18 ± 4.4
313.15 K, 15010 kPa | 726.93 ± 4.4
313.15 K, 16000 kPa | 727.61 ± 4.4
313.15 K, 17010 kPa | 728.38 ± 4.4
313.15 K, 18010 kPa | 729.1 ± 4.4
313.15 K, 19000 kPa | 729.81 ± 4.4
313.15 K, 20000 kPa | 730.51 ± 4.4
323.15 K, 100 kPa | 706.95 ± 4.2
323.15 K, 1000 kPa | 707.77 ± 4.2
323.15 K, 1990 kPa | 708.72 ± 4.3
323.15 K, 3000 kPa | 709.63 ± 4.3
323.15 K, 4000 kPa | 710.55 ± 4.3
323.15 K, 5010 kPa | 711.46 ± 4.3
323.15 K, 5990 kPa | 712.35 ± 4.3
323.15 K, 7000 kPa | 713.23 ± 4.3
323.15 K, 8010 kPa | 714.1 ± 4.3
323.15 K, 8990 kPa | 714.96 ± 4.3
323.15 K, 10010 kPa | 715.8 ± 4.3
323.15 K, 11000 kPa | 716.66 ± 4.3
323.15 K, 12010 kPa | 717.49 ± 4.3
323.15 K, 13010 kPa | 718.29 ± 4.3
323.15 K, 14000 kPa | 719.09 ± 4.3
323.15 K, 15010 kPa | 719.88 ± 4.3
323.15 K, 16010 kPa | 720.66 ± 4.3
323.15 K, 17010 kPa | 721.43 ± 4.3
323.15 K, 17990 kPa | 722.2 ± 4.3
323.15 K, 18990 kPa | 722.94 ± 4.3
323.15 K, 20010 kPa | 723.68 ± 4.3
333.15 K, 100 kPa | 699.17 ± 4.2
333.15 K, 1000 kPa | 700.04 ± 4.2
333.15 K, 2010 kPa | 701.02 ± 4.2
333.15 K, 3000 kPa | 702.01 ± 4.2
333.15 K, 4010 kPa | 702.98 ± 4.2
333.15 K, 4990 kPa | 703.93 ± 4.2
333.15 K, 5990 kPa | 704.88 ± 4.2
333.15 K, 7000 kPa | 705.81 ± 4.2
333.15 K, 8000 kPa | 706.73 ± 4.2
333.15 K, 9010 kPa | 707.63 ± 4.2
333.15 K, 9990 kPa | 708.53 ± 4.3
333.15 K, 11000 kPa | 709.45 ± 4.3
333.15 K, 12000 kPa | 710.31 ± 4.3
333.15 K, 13010 kPa | 711.16 ± 4.3
333.15 K, 14000 kPa | 712.01 ± 4.3
333.15 K, 15000 kPa | 712.85 ± 4.3
333.15 K, 16010 kPa | 713.67 ± 4.3
333.15 K, 16990 kPa | 714.48 ± 4.3
333.15 K, 18000 kPa | 715.29 ± 4.3
333.15 K, 18990 kPa | 716.08 ± 4.3
333.15 K, 20000 kPa | 716.87 ± 4.3
343.15 K, 100 kPa | 691.44 ± 4.2
343.15 K, 1010 kPa | 692.33 ± 4.2
343.15 K, 2010 kPa | 693.38 ± 4.2
343.15 K, 2990 kPa | 694.42 ± 4.2
343.15 K, 4010 kPa | 695.45 ± 4.2
343.15 K, 4990 kPa | 696.46 ± 4.2
343.15 K, 6000 kPa | 697.46 ± 4.2
343.15 K, 7000 kPa | 698.44 ± 4.2
343.15 K, 8010 kPa | 699.41 ± 4.2
343.15 K, 8990 kPa | 700.37 ± 4.2
343.15 K, 10010 kPa | 701.31 ± 4.2
343.15 K, 11010 kPa | 702.25 ± 4.2
343.15 K, 12010 kPa | 703.17 ± 4.2
343.15 K, 13000 kPa | 704.08 ± 4.2
343.15 K, 14010 kPa | 704.97 ± 4.2
343.15 K, 15000 kPa | 705.86 ± 4.2
343.15 K, 16000 kPa | 706.73 ± 4.2
343.15 K, 17010 kPa | 707.59 ± 4.3
343.15 K, 18010 kPa | 708.44 ± 4.3
343.15 K, 18990 kPa | 709.28 ± 4.3
343.15 K, 19990 kPa | 710.1 ± 4.3
353.15 K, 100 kPa | 683.75 ± 4.1
353.15 K, 1010 kPa | 684.69 ± 4.1
353.15 K, 2000 kPa | 685.79 ± 4.1
353.15 K, 3010 kPa | 686.88 ± 4.1
353.15 K, 4010 kPa | 687.96 ± 4.1
353.15 K, 5010 kPa | 689.03 ± 4.1
353.15 K, 5990 kPa | 690.08 ± 4.2
353.15 K, 7000 kPa | 691.11 ± 4.2
353.15 K, 8000 kPa | 692.13 ± 4.2
353.15 K, 9000 kPa | 693.13 ± 4.2
353.15 K, 10000 kPa | 694.12 ± 4.2
353.15 K, 11010 kPa | 695.12 ± 4.2
353.15 K, 12000 kPa | 696.08 ± 4.2
353.15 K, 13000 kPa | 697.04 ± 4.2
353.15 K, 13990 kPa | 697.98 ± 4.2
353.15 K, 15000 kPa | 698.91 ± 4.2
353.15 K, 16000 kPa | 699.82 ± 4.2
353.15 K, 16990 kPa | 700.72 ± 4.2
353.15 K, 18010 kPa | 701.62 ± 4.2
353.15 K, 19000 kPa | 702.5 ± 4.2
353.15 K, 20000 kPa | 703.37 ± 4.2
363.15 K, 100 kPa | 676.12 ± 4.1
363.15 K, 990 kPa | 677.1 ± 4.1
363.15 K, 2010 kPa | 678.26 ± 4.1
363.15 K, 3000 kPa | 679.41 ± 4.1
363.15 K, 3990 kPa | 680.54 ± 4.1
363.15 K, 5010 kPa | 681.66 ± 4.1
363.15 K, 5990 kPa | 682.76 ± 4.1
363.15 K, 7000 kPa | 683.84 ± 4.1
363.15 K, 8010 kPa | 684.91 ± 4.1
363.15 K, 9010 kPa | 685.97 ± 4.1
363.15 K, 10010 kPa | 687 ± 4.1
363.15 K, 11000 kPa | 688.04 ± 4.1
363.15 K, 12010 kPa | 689.05 ± 4.1
363.15 K, 13010 kPa | 690.06 ± 4.2
363.15 K, 14000 kPa | 691.04 ± 4.2
363.15 K, 15010 kPa | 692.02 ± 4.2
363.15 K, 15990 kPa | 692.98 ± 4.2
363.15 K, 17000 kPa | 693.93 ± 4.2
363.15 K, 17990 kPa | 694.86 ± 4.2
363.15 K, 19000 kPa | 695.79 ± 4.2
363.15 K, 20000 kPa | 696.7 ± 4.2

Conditions | refractive index
[2] | 1.4091 ± 0.004
